Measurements: ChEMBL document CHEMBL5212743, “Selectivity Literature for EUbOPEN Chemogenomics Library wave 3” (2023)

Tests used:
[1] = target: Tyrosine-protein kinase JAK1 (Homo sapiens, UniProt P23458); conditions: at 1 µM
[2] = target: T1, Tyrosine-protein kinase ABL1 (Homo sapiens, UniProt P00519); conditions: at 20 µM
[3] = target: T1, Tyrosine-protein kinase ABL1; conditions: at 20 µM; remark: listed apart in the source
[4] = target: Ephrin type-A receptor 5 (Homo sapiens) (UniProt P54756); assay: Selectivity interaction (KinomeScan (DiscoverX)) EUB0000740a EPHA5; conditions: at 1 µM
[5] = target: Atypical kinase COQ8B, mitochondrial (Homo sapiens) (UniProt Q96D53); assay: Selectivity interaction (KinomeScan (DiscoverX)) EUB0000740a ADCK4; conditions: at 1 µM
[6] = target: T2, Serine/threonine-protein kinase LATS2 (Homo sapiens) (UniProt Q9NRM7); assay: Selectivity interaction (KinomeScan (DiscoverX)) EUB0000740a LATS2; conditions: at 1 µM
T2 sequence (whole entry): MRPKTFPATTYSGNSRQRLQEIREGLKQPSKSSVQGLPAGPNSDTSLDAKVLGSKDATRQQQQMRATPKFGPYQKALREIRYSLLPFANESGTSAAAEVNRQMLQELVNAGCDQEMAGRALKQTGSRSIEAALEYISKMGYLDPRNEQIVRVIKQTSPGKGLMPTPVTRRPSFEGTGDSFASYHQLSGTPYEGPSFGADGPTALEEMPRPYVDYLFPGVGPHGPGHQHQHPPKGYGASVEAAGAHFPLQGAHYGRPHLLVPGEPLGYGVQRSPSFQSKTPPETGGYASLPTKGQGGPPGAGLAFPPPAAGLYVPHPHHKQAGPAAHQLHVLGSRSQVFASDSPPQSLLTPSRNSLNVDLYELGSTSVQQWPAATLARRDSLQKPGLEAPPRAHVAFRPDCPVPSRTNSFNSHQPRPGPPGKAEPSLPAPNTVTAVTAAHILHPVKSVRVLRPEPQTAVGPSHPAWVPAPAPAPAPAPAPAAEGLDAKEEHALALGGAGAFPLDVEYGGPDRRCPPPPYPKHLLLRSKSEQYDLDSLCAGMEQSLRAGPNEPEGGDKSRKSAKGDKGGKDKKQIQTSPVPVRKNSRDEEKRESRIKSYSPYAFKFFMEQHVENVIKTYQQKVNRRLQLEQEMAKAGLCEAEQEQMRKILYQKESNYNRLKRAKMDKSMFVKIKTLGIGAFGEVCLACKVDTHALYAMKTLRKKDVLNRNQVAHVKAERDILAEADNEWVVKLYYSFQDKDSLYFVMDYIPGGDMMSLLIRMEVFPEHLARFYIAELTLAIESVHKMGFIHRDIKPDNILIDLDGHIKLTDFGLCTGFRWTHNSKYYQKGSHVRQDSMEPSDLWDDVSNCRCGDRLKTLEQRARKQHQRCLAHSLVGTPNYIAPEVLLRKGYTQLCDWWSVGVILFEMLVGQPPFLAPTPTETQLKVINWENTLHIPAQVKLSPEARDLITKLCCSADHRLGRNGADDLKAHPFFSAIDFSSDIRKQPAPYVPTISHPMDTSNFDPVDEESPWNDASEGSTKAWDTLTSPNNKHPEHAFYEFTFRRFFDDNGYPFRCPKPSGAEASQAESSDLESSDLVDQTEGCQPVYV

Aurora kinase B = Aurora kinase B (Homo sapiens, UniProt Q96GD4); assay: Selectivity interaction (KinomeScan (DiscoverX)) EUB0000740a AURKB; conditions: at 1 µM
[7] = target: T2, Serine/threonine-protein kinase LATS2 (Homo sapiens); assay: Selectivity interaction (KinomeScan (DiscoverX)) EUB0000314b LATS2; conditions: at 1 µM
[8] = target: Beta-1 adrenergic receptor (Homo sapiens) (UniProt P08588); assay: Selectivity interaction (Eurofins-Panlabs panel (at Boehringer Ingelheim)) EUB0000314b ADRB1; conditions: at 10 µM
D(1B) dopamine receptor [9] = target: T3, D(1B) dopamine receptor (Homo sapiens, UniProt P21918); assay: Selectivity interaction (GPCR panel (PDSP screen)) EUB0000314b DRD5; conditions: at 10 µM
T3 sequence (P21918 whole entry): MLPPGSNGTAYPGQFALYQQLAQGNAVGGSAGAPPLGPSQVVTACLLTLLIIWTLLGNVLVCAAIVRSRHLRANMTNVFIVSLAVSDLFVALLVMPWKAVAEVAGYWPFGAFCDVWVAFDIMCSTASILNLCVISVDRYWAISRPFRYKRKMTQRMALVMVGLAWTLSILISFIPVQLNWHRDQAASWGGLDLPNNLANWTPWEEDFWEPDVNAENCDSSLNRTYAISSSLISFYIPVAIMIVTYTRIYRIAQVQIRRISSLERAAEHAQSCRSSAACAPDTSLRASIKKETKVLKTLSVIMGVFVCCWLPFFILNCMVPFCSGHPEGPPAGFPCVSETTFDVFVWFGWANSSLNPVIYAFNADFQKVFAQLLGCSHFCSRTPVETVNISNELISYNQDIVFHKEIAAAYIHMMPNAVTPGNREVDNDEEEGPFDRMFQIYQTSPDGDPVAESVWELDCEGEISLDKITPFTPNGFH

[10] = target: Gamma-aminobutyric acid receptor subunit beta-2 (Homo sapiens) (UniProt P47870); assay: Selectivity interaction (Eurofins-Panlabs panel (at Boehringer Ingelheim)) EUB0000314b GABRB2; conditions: at 10 µM
[11] = target: T4, Phosphatidylinositol 5-phosphate 4-kinase type-2 gamma (Homo sapiens) (UniProt Q8TBX8); assay: Selectivity interaction (KinomeScan (DiscoverX)) EUB0000343a PIP4K2C; conditions: at 1 µM
T4 sequence (whole entry): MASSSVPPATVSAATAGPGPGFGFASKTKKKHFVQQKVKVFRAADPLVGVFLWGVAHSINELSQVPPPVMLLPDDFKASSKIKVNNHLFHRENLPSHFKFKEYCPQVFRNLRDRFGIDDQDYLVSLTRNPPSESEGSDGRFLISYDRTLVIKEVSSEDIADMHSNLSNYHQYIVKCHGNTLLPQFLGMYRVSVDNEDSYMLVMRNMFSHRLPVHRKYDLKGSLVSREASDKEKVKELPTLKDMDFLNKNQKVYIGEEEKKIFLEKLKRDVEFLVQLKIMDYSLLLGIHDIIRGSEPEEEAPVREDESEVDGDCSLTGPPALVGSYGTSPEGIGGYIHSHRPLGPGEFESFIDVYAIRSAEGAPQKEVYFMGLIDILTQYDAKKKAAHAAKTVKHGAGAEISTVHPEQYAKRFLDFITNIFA

[12] = target: 5-hydroxytryptamine receptor 1B (Homo sapiens) (UniProt P28222); assay: Selectivity interaction (GPCR panel (PDSP screen)) EUB0000343a HTR1B; conditions: at 10 µM
[13] = target: Serine/threonine-protein kinase Nek1 (Homo sapiens) (UniProt Q96PY6); assay: Selectivity interaction (KinomeScan (DiscoverX)) EUB0000343a NEK1; conditions: at 1 µM
[14] = target: T5, Cytoplasmic tyrosine-protein kinase BMX (Homo sapiens) (UniProt P51813); assay: Selectivity interaction (KinomeScan (DiscoverX)) EUB0000549a BMX; conditions: at 1 µM
T5 sequence (whole entry): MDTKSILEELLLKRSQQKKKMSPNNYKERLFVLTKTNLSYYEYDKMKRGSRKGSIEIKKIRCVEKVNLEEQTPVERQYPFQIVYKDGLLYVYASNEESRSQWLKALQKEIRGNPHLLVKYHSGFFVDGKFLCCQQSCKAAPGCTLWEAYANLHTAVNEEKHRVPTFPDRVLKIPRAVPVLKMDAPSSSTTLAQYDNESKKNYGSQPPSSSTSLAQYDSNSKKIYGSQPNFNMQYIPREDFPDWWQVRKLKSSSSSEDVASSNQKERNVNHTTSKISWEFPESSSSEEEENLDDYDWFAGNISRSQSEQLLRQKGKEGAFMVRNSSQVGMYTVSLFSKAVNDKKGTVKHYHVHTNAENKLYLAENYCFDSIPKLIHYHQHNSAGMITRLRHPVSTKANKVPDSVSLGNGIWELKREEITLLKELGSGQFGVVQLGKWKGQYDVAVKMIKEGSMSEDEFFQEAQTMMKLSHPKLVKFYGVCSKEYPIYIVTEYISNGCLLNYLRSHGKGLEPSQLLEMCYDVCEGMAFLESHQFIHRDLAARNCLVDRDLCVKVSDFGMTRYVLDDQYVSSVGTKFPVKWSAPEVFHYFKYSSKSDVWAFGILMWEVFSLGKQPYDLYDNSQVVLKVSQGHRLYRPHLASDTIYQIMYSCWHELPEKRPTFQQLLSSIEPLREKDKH

[15] = target: T6, Serine/threonine-protein kinase 38-like (Homo sapiens, UniProt Q9Y2H1); assay: Selectivity interaction (KinomeScan (DiscoverX)) EUB0000549a STK38L; conditions: at 1 µM
T6 sequence (Q9Y2H1 2-464 limits assumed): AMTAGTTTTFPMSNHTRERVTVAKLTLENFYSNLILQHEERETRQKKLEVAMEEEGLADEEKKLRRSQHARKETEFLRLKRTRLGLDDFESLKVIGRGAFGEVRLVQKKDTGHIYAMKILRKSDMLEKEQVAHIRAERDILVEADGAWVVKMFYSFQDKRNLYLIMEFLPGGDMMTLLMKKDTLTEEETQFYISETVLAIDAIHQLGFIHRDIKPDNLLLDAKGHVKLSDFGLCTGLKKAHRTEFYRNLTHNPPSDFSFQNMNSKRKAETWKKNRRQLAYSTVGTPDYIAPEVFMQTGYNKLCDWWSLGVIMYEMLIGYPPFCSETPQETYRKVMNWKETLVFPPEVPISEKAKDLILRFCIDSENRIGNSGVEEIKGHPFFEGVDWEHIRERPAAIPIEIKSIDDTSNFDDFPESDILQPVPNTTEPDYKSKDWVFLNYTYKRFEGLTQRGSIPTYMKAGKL

[16] = target: Transient receptor potential cation channel subfamily M member 6 (Homo sapiens) (UniProt Q9BX84); assay: Selectivity interaction (KinomeScan (DiscoverX)) EUB0000549a TRPM6; conditions: at 1 µM
[17] = target: Serine/threonine-protein kinase Nek4 (Homo sapiens) (UniProt P51957); assay: Selectivity interaction (KinomeScan (DiscoverX)) EUB0000549a NEK4; conditions: at 1 µM
[18] = target: T6, Serine/threonine-protein kinase 38-like; assay: Selectivity interaction (KinomeScan (DiscoverX)) EUB0000352a STK38L; conditions: at 1 µM
[19] = target: Leucine-rich repeat serine/threonine-protein kinase 2 (Homo sapiens, UniProt Q5S007); assay: Selectivity interaction (KinomeScan (DiscoverX)) EUB0000352a LRRK2; conditions: at 1 µM
[20] = target: Sodium-dependent dopamine transporter (Homo sapiens, UniProt Q01959); assay: Selectivity interaction (Eurofins-Panlabs screen (receptors)) EUB0000352a SLC6A3; conditions: at 10 µM
Chain of Sodium-dependent dopamine transporter (Q01959 whole entry): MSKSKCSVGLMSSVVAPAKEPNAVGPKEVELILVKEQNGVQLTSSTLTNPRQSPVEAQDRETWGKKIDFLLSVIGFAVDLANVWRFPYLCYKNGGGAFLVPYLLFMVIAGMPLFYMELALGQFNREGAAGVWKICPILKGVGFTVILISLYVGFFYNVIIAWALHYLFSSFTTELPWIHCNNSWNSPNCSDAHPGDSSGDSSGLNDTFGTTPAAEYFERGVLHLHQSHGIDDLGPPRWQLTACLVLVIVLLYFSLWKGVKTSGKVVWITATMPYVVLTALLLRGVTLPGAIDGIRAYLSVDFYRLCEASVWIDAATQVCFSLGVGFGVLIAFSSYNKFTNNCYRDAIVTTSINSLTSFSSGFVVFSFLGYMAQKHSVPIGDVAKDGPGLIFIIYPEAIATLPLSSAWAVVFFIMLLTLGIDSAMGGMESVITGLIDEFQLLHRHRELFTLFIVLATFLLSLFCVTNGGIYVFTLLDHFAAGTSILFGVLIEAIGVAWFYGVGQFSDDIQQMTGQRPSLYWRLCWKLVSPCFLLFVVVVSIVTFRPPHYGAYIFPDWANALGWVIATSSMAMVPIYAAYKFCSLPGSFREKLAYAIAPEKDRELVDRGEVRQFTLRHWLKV

[21] = target: Serine/threonine-protein kinase tousled-like 1 (Homo sapiens) (UniProt Q9UKI8); assay: Selectivity interaction (KinomeScan (DiscoverX)) EUB0000586a TLK1; conditions: at 1 µM
D(1B) dopamine receptor [22] = target: T3, D(1B) dopamine receptor; assay: Selectivity interaction (GPCR panel (PDSP screen)) EUB0000586a DRD5; conditions: at 10 µM
[23] = target: T6, Serine/threonine-protein kinase 38-like; assay: Selectivity interaction (KinomeScan (DiscoverX)) EUB0000586a STK38L; conditions: at 1 µM
[24] = target: Ribosomal protein S6 kinase alpha-2 (Homo sapiens) (UniProt Q15349); assay: Selectivity interaction (KinomeScan (DiscoverX)) EUB0000586a RPS6KA2; conditions: at 1 µM
Chain of Ribosomal protein S6 kinase alpha-2 (Homo sapiens) (Q15349 whole entry, looked up): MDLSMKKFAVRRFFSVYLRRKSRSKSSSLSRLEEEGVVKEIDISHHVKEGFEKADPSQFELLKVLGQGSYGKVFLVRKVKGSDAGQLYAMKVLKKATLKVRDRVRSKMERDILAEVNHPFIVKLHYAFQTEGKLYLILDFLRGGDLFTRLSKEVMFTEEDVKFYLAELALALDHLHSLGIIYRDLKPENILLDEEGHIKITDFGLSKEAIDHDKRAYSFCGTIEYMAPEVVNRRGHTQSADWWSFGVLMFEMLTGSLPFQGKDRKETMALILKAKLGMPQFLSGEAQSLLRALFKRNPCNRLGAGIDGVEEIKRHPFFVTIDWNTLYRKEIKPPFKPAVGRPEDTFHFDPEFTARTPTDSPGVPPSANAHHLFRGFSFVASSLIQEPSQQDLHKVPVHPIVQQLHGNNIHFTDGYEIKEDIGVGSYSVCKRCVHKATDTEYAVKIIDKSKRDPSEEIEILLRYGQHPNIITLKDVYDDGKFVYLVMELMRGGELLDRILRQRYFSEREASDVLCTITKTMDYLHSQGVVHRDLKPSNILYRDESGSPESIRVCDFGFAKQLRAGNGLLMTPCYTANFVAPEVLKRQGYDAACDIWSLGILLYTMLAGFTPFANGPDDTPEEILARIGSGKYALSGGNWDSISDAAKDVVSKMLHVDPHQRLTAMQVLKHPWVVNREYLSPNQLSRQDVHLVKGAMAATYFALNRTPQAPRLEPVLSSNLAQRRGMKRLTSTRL

[25] = target: Serine/threonine-protein kinase 24 (Homo sapiens) (UniProt Q9Y6E0); assay: Selectivity interaction (KinomeScan (DiscoverX)) EUB0000586a STK24; conditions: at 1 µM
[26] = target: Death-associated protein kinase 1 (Homo sapiens) (UniProt P53355); assay: Selectivity interaction (KinomeScan (DiscoverX)) EUB0000586a DAPK1; conditions: at 1 µM
[27] = target: Ribosomal protein S6 kinase alpha-1 (Homo sapiens) (UniProt Q15418); assay: Selectivity interaction (KinomeScan (DiscoverX)) EUB0000586a RPS6KA1; conditions: at 1 µM
[28] = target: Kappa-type opioid receptor (Homo sapiens, UniProt P41145); assay: Selectivity interaction (GPCR panel (PDSP screen)) EUB0000586a OPRK1; conditions: at 10 µM
[29] = target: 5-hydroxytryptamine receptor 3A (Homo sapiens) (UniProt P46098); assay: Selectivity interaction (GPCR panel (PDSP screen)) EUB0000586a HTR3A; conditions: at 10 µM
Chain of 5-hydroxytryptamine receptor 3A (Homo sapiens) (P46098 whole entry): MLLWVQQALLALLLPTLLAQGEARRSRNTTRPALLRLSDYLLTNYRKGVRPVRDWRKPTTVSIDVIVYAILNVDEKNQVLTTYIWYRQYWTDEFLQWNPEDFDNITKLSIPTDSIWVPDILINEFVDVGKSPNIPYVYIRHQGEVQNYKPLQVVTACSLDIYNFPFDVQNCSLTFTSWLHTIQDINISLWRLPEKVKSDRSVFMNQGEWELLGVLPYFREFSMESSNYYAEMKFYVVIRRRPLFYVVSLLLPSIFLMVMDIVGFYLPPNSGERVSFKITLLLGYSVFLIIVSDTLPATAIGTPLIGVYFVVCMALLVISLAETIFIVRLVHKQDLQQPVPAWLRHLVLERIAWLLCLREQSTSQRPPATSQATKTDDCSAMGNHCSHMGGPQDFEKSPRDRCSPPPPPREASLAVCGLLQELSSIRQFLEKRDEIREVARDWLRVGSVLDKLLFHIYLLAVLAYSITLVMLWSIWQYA

[30] = target: Ribosomal protein S6 kinase alpha-6 (Homo sapiens) (UniProt Q9UK32); assay: Selectivity interaction (KinomeScan (DiscoverX)) EUB0000586a RPS6KA6; conditions: at 1 µM

T1 sequence (P00519 whole entry): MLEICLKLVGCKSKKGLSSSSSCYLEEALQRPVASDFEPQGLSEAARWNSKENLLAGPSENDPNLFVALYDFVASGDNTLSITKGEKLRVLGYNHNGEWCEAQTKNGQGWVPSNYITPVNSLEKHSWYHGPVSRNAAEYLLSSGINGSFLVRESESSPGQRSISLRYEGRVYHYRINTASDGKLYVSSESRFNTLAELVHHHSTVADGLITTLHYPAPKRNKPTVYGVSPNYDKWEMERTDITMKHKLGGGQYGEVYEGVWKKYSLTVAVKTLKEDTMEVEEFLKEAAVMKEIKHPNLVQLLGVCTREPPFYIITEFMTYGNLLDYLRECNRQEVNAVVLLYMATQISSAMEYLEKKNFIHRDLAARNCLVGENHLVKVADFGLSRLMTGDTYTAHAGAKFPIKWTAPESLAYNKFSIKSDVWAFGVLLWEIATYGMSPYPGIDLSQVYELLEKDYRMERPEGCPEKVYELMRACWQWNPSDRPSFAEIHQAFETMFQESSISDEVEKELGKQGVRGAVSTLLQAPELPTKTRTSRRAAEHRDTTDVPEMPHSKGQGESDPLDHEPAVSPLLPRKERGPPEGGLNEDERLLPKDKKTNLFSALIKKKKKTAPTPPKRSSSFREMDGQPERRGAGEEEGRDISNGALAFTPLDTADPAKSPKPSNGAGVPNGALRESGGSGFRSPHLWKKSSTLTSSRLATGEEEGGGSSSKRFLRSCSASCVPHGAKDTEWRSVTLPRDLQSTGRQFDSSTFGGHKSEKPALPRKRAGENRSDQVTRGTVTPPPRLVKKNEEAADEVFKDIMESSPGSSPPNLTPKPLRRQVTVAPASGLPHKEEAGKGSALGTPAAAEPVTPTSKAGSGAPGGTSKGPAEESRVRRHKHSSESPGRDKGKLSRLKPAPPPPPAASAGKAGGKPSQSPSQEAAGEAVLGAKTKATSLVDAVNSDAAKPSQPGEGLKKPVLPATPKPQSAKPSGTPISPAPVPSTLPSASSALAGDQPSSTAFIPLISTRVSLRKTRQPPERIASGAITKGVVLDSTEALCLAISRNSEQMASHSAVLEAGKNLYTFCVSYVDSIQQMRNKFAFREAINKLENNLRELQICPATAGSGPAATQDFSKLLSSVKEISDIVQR
Chain of Tyrosine-protein kinase JAK1 (P23458 whole entry): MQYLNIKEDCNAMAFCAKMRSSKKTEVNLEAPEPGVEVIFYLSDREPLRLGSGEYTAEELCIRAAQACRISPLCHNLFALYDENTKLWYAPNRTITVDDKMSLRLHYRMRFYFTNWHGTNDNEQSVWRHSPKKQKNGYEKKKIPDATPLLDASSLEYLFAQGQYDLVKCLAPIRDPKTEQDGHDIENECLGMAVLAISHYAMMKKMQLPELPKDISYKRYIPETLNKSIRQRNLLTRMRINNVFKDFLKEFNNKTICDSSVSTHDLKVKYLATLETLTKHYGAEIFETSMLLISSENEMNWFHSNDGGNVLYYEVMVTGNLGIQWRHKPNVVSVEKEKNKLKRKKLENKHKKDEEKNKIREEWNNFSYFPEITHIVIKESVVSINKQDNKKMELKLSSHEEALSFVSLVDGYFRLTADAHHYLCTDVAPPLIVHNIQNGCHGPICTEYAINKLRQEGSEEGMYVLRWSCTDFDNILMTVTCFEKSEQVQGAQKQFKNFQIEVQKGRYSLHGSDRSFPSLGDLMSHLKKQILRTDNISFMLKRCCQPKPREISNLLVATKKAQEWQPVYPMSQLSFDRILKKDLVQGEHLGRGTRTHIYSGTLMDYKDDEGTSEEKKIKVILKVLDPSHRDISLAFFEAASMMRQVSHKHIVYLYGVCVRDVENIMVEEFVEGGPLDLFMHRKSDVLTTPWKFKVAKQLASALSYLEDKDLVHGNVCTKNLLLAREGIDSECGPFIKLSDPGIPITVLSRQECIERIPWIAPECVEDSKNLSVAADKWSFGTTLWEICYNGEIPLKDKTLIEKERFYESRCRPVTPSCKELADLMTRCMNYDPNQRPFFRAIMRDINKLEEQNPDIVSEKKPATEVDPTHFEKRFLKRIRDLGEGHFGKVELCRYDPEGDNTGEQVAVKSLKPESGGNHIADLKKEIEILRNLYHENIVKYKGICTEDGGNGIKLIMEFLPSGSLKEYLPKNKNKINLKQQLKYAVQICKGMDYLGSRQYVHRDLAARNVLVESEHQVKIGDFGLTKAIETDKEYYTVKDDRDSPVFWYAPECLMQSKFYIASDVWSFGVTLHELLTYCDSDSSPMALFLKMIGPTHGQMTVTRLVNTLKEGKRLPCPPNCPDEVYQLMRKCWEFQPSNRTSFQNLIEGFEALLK

## CN(C)C(=O)Cn1cc(-c2nc([C@@](C)(c3ccc(-c4cnc(N)nc4)cc3)C3CC3)no2)cn1
[1]
  % of control: 33%
[2]
  % of control: 33%
[3]
  % of inhibition: 67%

## CN(C)C(=O)Cn1cc(-c2nc(C3(c4ccc(-c5cnc(N)nc5)cc4)CC3)no2)cn1
[4]
  % of control: 41%
[5]
  % of control: 44%
[6]
  % of control: 46%
Aurora kinase B
  % of control: 41%

## CCS(=O)(=O)c1cc2cc(C[C@](O)(CC(C)(C)c3ccc(F)cc3C(N)=O)C(F)(F)F)[nH]c2cn1
[7]
  % of control: 40%
[8]
  % of control: 75%
D(1B) dopamine receptor [9]
  % of inhibition: 34%
[10]
  % of control: 75%

## CS(=O)(=O)NCC[C@H](NC(=O)c1cncc2c1cnn2-c1ccc(F)cc1)c1ccnc(S(C)(=O)=O)c1
[11]
  % of control: 0%
[12]
  % of inhibition: 47.7%
[13]
  % of control: 45%

## C[C@@]1(Cc2ccc(C#N)cc2)C(=O)N(c2cc(Cl)cc(Cl)c2)c2ncc(C(=O)NC3(c4nc(C5CCC5)no4)CC3)n21
[14]
  % of control: 40%
[15]
  % of control: 48%
[16]
  % of control: 0%
[17]
  % of control: 12%

## CS(=O)(=O)c1cc(C2(NC(=O)c3cncc4c3cnn4-c3ccc(F)cc3)CC2)ccn1
[18]
  % of control: 34%
[19]
  % of control: 43%
[20]
  % of inhibition: 71%

## CCS(=O)(=O)c1cc2cc(C[C@@](O)(CC(C)(C)c3ccc(F)cc3C(N)=O)C(F)(F)F)[nH]c2cn1
[21]
  % of control: 0%
D(1B) dopamine receptor [22]
  % of inhibition: 32%
[23]
  % of control: 38%
[24]
  % of control: 0%
[25]
  % of control: 0%
[26]
  % of control: 0%
[27]
  % of control: 0%
[28]
  % of inhibition: 28%
[29]
  % of inhibition: 21%
[30]
  % of control: 0%
